From PubChem BioAssay AID212 (DTP/NCI, 2004) come the findings set out here.

Each structure is given as a SMILES string. “And” between values parts separate entries of the source, which are not always exact repeats. Equal values may be shown once. Inconclusive results are not listed.

For this assay, the system named is BDF1 mice, colon carcinoma 38 sc, T/C %. The assay can be described thus: NCI In Vivo Anticancer Drug Screen. Data for tumor model Colon Carcinoma 38 (subcutaneous) in B6D2F1 (BDF1) mice. The settings on record: endpoint: median tumor weight (est.), higher = larger tumour. The procedure, abridged: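 Ratio of survival or tumor size, compound-treated animals relative to vehicle controls, in tumor-bearing mice.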

Where [1] appears, read: dose: 25.0 mg/kg/injection, schedule: Q07DX002 (ip), vehicle: saline with Tween-80.
The mark [2] stands for this setting: dose: 200.0 mg/kg/injection, schedule: Q07DX002 (ip), vehicle: saline with Tween-80.
Setting [3] is: dose: 50.0 mg/kg/injection, schedule: Q07DX002 (ip), vehicle: Klucel (hydroxypropylcellulose) (HPC).
Setting [4] is: dose: 200.0 mg/kg/injection, schedule: Q07DX002 (ip), vehicle: Klucel (hydroxypropylcellulose) (HPC).
[5] abbreviates: dose: 200.0 mg/kg/injection, schedule: Q07DX002 (ip), vehicle: saline.
Where [6] appears, read: dose: 400.0 mg/kg/injection, schedule: Q07DX002 (ip), vehicle: saline.

Consider `Cc1cc(O)c2c(c1O)C(=O)c1cccc(O)c1C2=O`, for which the T/C is, setting by setting: (dose: 0.18 mg/kg/injection, schedule: Q07DX002 (ip), vehicle: Klucel (hydroxypropylcellulose) (HPC)) 86 % of control; (dose: 0.37 mg/kg/injection, schedule: Q07DX002 (ip), vehicle: Klucel (hydroxypropylcellulose) (HPC)) 60 % of control; (dose: 0.75 mg/kg/injection, schedule: Q07DX002 (ip), vehicle: Klucel (hydroxypropylcellulose) (HPC)) 59 % of control; (dose: 1.5 mg/kg/injection, schedule: Q07DX002 (ip), vehicle: Klucel (hydroxypropylcellulose) (HPC)) 110 % of control.

For `CC(=O)Nc1ccc(C(=O)C=O)cc1`, the T/C is 62 % of control and 78 % of control (dose: 12.5 mg/kg/injection, schedule: Q07DX002 (ip), vehicle: saline with Tween-80); 87 % of control and 100 % of control under setting [1]; 92 % of control under setting [2].

On to `CSc1cc(C)[o+]c(C)c1`, for which the T/C is, setting by setting: (dose: 25.0 mg/kg/injection, schedule: Q07DX002 (ip), vehicle: Klucel (hydroxypropylcellulose) (HPC)) 117 % of control; under setting [3], 184 % of control; under setting [4], 108 % of control.

Turning to `Nc1ncnc2c(C3OC(CO)C(O)C3O)[nH]nc12` (stereo unspecified), the T/C is 193 % of control (dose: 15.0 mg/kg/injection, schedule: Q07DX002 (ip), vehicle: suspension in saline); 201 % of control (dose: 30.0 mg/kg/injection, schedule: Q07DX002 (ip), vehicle: suspension in saline); 168 % of control (dose: 60.0 mg/kg/injection, schedule: Q07DX002 (ip), vehicle: suspension in saline); 150 % of control (dose: 120.0 mg/kg/injection, schedule: Q07DX002 (ip), vehicle: suspension in saline).

Turning to `C=C1CC2(OC1=O)C(=O)N(C)c1ccc(I)cc12` (stereo unspecified), the T/C is 69 % of control (dose: 1.81 mg/kg/injection, schedule: Q07DX002 (ip), vehicle: suspension in saline); 114 % of control (dose: 3.62 mg/kg/injection, schedule: Q07DX002 (ip), vehicle: suspension in saline); 120 % of control (dose: 7.25 mg/kg/injection, schedule: Q07DX002 (ip), vehicle: suspension in saline); 63 % of control (dose: 14.5 mg/kg/injection, schedule: Q07DX002 (ip), vehicle: suspension in saline); 93 % of control (dose: 25.0 mg/kg/injection, schedule: Q07DX002 (ip), vehicle: saline); 107 % of control (dose: 29.0 mg/kg/injection, schedule: Q07DX002 (ip), vehicle: suspension in saline). Moreover, the T/C by setting is: (dose: 58.0 mg/kg/injection, schedule: Q07DX002 (ip), vehicle: suspension in saline) 111 % of control; under setting [5], 89 % of control; under setting [6], 108 % of control and 121 % of control.

Turning to `CC(=O)OCC1OC([S-])C(OC(C)=O)C(OC(C)=O)C1OC(C)=O.CC[PH+](CC)CC.CC[PH+](CC)CC.[Au].[Au]` (stereo unspecified), the T/C runs as follows: (dose: 2.5 mg/kg/injection, schedule: Q07DX002 (ip), vehicle: Klucel (hydroxypropylcellulose) (HPC)) 99 % of control; (dose: 10.0 mg/kg/injection, schedule: Q07DX002 (ip), vehicle: Klucel (hydroxypropylcellulose) (HPC)) 89 % of control and 93 % of control.

With `Cc1ccc[c]([Hg][Cl])c1N=Nc1ccccc1`, where the note is “dose: 6.25 mg/kg/injection, schedule: Q07DX002 (ip), vehicle: saline with Tween-80”, the T/C was 69 % of control.

Consider `CS(=O)(=O)OCCN(CCOS(C)(=O)=O)c1ccc(C=Nc2ccc(-c3csc(COc4ccccc4)n3)cc2)cc1`, for which the T/C is 158 % of control under setting [3]; 97 % of control and 100 % of control under setting [4]; 46 % of control (dose: 400.0 mg/kg/injection, schedule: Q07DX002 (ip), vehicle: Klucel (hydroxypropylcellulose) (HPC)).

Take `CCc1ccccc1N1CCN(C(=O)c2cc(OC)c(OC)c(OC)c2)CC1`: the T/C by setting is: (dose: 12.5 mg/kg/injection, schedule: Q07DX003 (ip), vehicle: Klucel (hydroxypropylcellulose) (HPC)) 92 % of control; (dose: 25.0 mg/kg/injection, schedule: Q07DX003 (ip), vehicle: Klucel (hydroxypropylcellulose) (HPC)) 96 % of control; (dose: 50.0 mg/kg/injection, schedule: Q07DX003 (ip), vehicle: Klucel (hydroxypropylcellulose) (HPC)) 47 % of control; (dose: 100.0 mg/kg/injection, schedule: Q07DX003 (ip), vehicle: Klucel (hydroxypropylcellulose) (HPC)) 64 % of control; (dose: 200.0 mg/kg/injection, schedule: Q07DX003 (ip), vehicle: Klucel (hydroxypropylcellulose) (HPC)) 54 % of control; (dose: 400.0 mg/kg/injection, schedule: Q07DX003 (ip), vehicle: Klucel (hydroxypropylcellulose) (HPC)) 13 % of control.

With `Nc1nc([Se])c2ncn(C3OC(CO)C(O)C3O)c2n1` (stereo unspecified), the T/C was 23 % of control (dose: 4.0 mg/kg/injection, schedule: Q07DX002 (ip), vehicle: saline); 124 % of control (dose: 4.0 mg/kg/injection, schedule: Q07DX002 (ip), vehicle: suspension in saline); 170 % of control (dose: 4.0 mg/kg/injection, schedule: Q07DX003 (ip), vehicle: saline); 14 % of control (dose: 8.0 mg/kg/injection, schedule: Q07DX002 (ip), vehicle: saline); 112 % of control and 94 % of control (dose: 8.0 mg/kg/injection, schedule: Q07DX002 (ip), vehicle: suspension in saline); 93 % of control (dose: 8.0 mg/kg/injection, schedule: Q07DX003 (ip), vehicle: saline). Moreover, the T/C by setting is: (dose: 16.0 mg/kg/injection, schedule: Q07DX002 (ip), vehicle: saline) 20 % of control; (dose: 16.0 mg/kg/injection, schedule: Q07DX002 (ip), vehicle: suspension in saline) 83 % of control and 86 % of control; (dose: 16.0 mg/kg/injection, schedule: Q07DX003 (ip), vehicle: saline) 113 % of control; (dose: 32.0 mg/kg/injection, schedule: Q07DX002 (ip), vehicle: saline) 18 % of control; (dose: 32.0 mg/kg/injection, schedule: Q07DX003 (ip), vehicle: saline) 92 % of control; (dose: 64.0 mg/kg/injection, schedule: Q07DX002 (ip), vehicle: saline) 20 % of control. Further, the T/C (dose: 64.0 mg/kg/injection, schedule: Q07DX002 (ip), vehicle: suspension in saline) was 71 % of control and 92 % of control; the T/C (dose: 64.0 mg/kg/injection, schedule: Q07DX003 (ip), vehicle: saline) was 41 % of control.

For the molecule `CN(C)CCCOC(=O)Cc1cccc2c(=O)cc(-c3ccccc3)oc12`, the T/C runs as follows: (dose: 100.0 mg/kg/injection, schedule: Q07DX002 (ip), vehicle: Klucel (hydroxypropylcellulose) (HPC)) 107 % of control; under setting [4], 81 % of control.

`Cc1ccc2c(c1)n([O-])c1cc(Cl)ccc1[n+]2=O`: the T/C was 118 % of control under setting [1]; 102 % of control (dose: 50.0 mg/kg/injection, schedule: Q07DX002 (ip), vehicle: saline with Tween-80); 78 % of control (dose: 100.0 mg/kg/injection, schedule: Q07DX002 (ip), vehicle: saline with Tween-80); 76 % of control under setting [2]; 79 % of control (dose: 400.0 mg/kg/injection, schedule: Q07DX002 (ip), vehicle: saline with Tween-80).

On to `Nc1cccc(=O)[nH]1`, for which the T/C (dose: 25.0 mg/kg/injection, schedule: Q07DX002 (ip), vehicle: suspension in saline) was 116 % of control; the T/C (dose: 50.0 mg/kg/injection, schedule: Q07DX002 (ip), vehicle: saline) was 92 % of control; the T/C (dose: 50.0 mg/kg/injection, schedule: Q07DX002 (ip), vehicle: suspension in saline) was 66 % of control; the T/C (dose: 100.0 mg/kg/injection, schedule: Q07DX002 (ip), vehicle: saline) was 113 % of control; the T/C (dose: 100.0 mg/kg/injection, schedule: Q07DX002 (ip), vehicle: suspension in saline) was 87 % of control; the T/C under setting [5] is 94 % of control. For the same molecule, the T/C was 77 % of control (dose: 200.0 mg/kg/injection, schedule: Q07DX002 (ip), vehicle: suspension in saline); 91 % of control under setting [6]; 74 % of control (dose: 400.0 mg/kg/injection, schedule: Q07DX002 (ip), vehicle: suspension in saline); 95 % of control (dose: 800.0 mg/kg/injection, schedule: Q07DX002 (ip), vehicle: saline).
